Test results as given in article PMC3038857, “Using Nuclear Receptor Activity to Stratify Hepatocarcinogens” (PLoS ONE, 2011).
Read-outs that look alike come from different tables or passages of the source.

Columns and labels:
LXRa (NR1H3) = biological target: T1, LXRa (NR1H3) (Homo sapiens, UniProt Q13133); test: ATG_LXRa_TRANS: Factorial reporter gene assay (HepG2); format: cell-based
T1 construct: expressed in transfected cells; host or cells: HepG2
T1 sequence (Q13133 1-447): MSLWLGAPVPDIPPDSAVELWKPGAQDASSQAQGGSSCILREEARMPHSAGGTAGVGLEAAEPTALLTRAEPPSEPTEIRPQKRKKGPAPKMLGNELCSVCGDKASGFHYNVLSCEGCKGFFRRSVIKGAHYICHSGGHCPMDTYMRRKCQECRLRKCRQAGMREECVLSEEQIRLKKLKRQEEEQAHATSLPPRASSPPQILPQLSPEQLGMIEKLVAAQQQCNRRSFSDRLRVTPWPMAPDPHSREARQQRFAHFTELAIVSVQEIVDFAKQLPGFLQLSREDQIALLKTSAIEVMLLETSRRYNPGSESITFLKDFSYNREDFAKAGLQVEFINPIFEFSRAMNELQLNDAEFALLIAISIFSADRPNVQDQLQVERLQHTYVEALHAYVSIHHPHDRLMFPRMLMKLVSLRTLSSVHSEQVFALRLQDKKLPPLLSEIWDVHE
Method: A multiple reporter transcription unit (MRTU) library consisting of 48 transcription factor binding sites was transfected into the HepG2 human liver hepatoma cell line. In addition to the cis-acting reporter genes (CIS), a modification of the approach was used to generate a trans-system (TRANS) with a mammalian one-hybrid assay consisting of an additional 25 MRTU library reporting the activity of nuclear receptor super-family members. […] These assays were performed by Attagene Inc. (Morrisville NC) under contract to EPA.
In addition to the cis-acting reporter genes (CIS), a modification of the approach was used to generate a trans-system (TRANS) with a mammalian one-hybrid assay consisting of an additional 25 MRTU library reporting the activity of nuclear receptor super-family members. […] Chemicals were then tested in the CIS and TRANS assays at seven concentrations starting at the MTC and followed by three-fold serial dilutions. These assays were performed by Attagene Inc. (Morrisville NC) under contract to EPA. Detailed description of the methods, data and analysis methods for this dataset will be presented in a separate publication.

HMGCS2 = test: CLZD_HMGCS2: Change in expression of HMGCS2 (primary human hepatocytes); format: cell-based; conditions: 24 hr
Method: This is a collection of multiplexed gene expression assays focused on Phase I and II xenobiotic metabolizing enzymes and transporters. Human primary cell cultures were treated with chemicals at 5 concentrations (0.004-40 [drawing 42] M) for 6, 24 and 48 hr. Concentration- and time-response profiles of chemicals were measured by the expression of key nuclear receptor target genes, activities of CYP1A enzymes (EROD), and cell morphology. Fourteen gene targets were monitored by quantitative nuclease protection assay including: six representative cytochrome P-450 genes, four hepatic transporters, three Phase II conjugating enzymes, and one endogenous metabolism gene involved in cholesterol synthesis. The target genes associated with nuclear receptor pathways are as follows: [drawing 43] and [drawing 44] with [drawing 45]; [drawing 46] , [drawing 47] , [drawing 48] , [drawing 49] , [drawing 50] and [drawing 51] with [drawing 52]; [drawing 53] , [drawing 54] , [drawing 55] and [drawing 56] with [drawing 57]; [drawing 58] with [drawing 59]; and [drawing 60] with [drawing 61] . Assays were run in primary human hepatocyte cultures by CellzDirect Invitrogen Inc. (Durham, NC), in collaboration with EPA.
Multiplexed Gene Expression in Human Primary Hepatocytes: This is a collection of multiplexed gene expression assays focused on Phase I and II metabolic enzymes and transporters. […] Fourteen gene targets were monitored by quantitative nuclease protection assay: six representative cytochrome P450 genes, four hepatic transporters, three Phase II conjugating enzymes, and one endogenous metabolism gene involved in cholesterol synthesis. Cells were exposed at 5 concentrations (0.004-40 µM) for 6, 24 or 48 hr. Gene targets are sentinels for five nuclear receptor signaling pathways: AhR, CAR, PXR, FXR, and PPARα. All gene are associated with nuclear receptor pathways: CYP1A1 and CYP1A2 with AHR; ABCB1, ABCG2, CYP2B6, CYP2C9, CYP2C19 and UGT1A1 with CAR; CYP3A4, GSTA2, SLCO1B1 and SULT2A1 with PXR; HMGCS2 with PPARA; and ABCB11 with FXR. […] Detailed description of the methods, data and analysis methods for this dataset will be presented in a separate publication.

Mouse Liver [1] = conditions: ref ToxRefDB, cited from earlier work
Mouse Liver [2] = conditions: chronic study, mouse liver; ref ToxRefDB; cited from earlier work
Mouse Liver [3] = conditions: chronic study, mouse liver; ref ToxRefDB; cited from earlier work; remark: listed apart in the source
Rat Liver [4] = conditions: ref ToxRefDB, cited from earlier work
Rat Liver [5] = conditions: ref ToxRefDB, cited from earlier work; remark: listed apart in the source
Rat Liver [6] = conditions: ref ToxRefDB, cited from earlier work; remark: listed apart in the source
PXR (NR1I2) = biological target: T2, PXR (NR1I2) (Homo sapiens, UniProt O75469); test: ATG_PXRE_CIS: Factorial reporter gene assay (HepG2); format: cell-based; design: endogenous in cells; host or cells: HepG2; conditions: HepG2 reporter
T2 sequence (O75469 1-434): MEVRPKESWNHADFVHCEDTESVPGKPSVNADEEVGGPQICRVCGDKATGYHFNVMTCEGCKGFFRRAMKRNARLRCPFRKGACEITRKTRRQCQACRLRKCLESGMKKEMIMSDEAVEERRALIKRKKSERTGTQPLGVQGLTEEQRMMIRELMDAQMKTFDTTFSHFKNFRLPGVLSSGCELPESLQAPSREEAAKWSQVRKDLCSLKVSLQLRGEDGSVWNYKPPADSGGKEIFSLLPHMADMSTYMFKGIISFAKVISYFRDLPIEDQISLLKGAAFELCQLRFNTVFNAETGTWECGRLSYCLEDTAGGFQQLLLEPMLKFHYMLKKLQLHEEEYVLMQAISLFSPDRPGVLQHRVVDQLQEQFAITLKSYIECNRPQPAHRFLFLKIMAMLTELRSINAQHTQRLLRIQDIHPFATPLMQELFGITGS
How it was run: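 Compounds at seven concentrations (top at MTC, threefold serial) were applied to transfected HepG2 hepatoma cells, with PXRE scored by cis-element reporters and ERRg, FXR and PPARg scored by trans one-hybrid nuclear receptor reporters.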

LXRa (NR1H2) = test: NCGC_LXR_Agonist: GAL4 BLAM Reporter gene assay: LXRa; format: cell-based, human; conditions: agonist mode
Method: These assays measure binding constants and enzyme inhibition values for nuclear receptors. The targets include [drawing 67] , [drawing 68] , [drawing 69] , [drawing 70] , [drawing 71] , [drawing 72] , [drawing 73] , [drawing 74] , [drawing 75] and [drawing 76] . Each of the nuclear receptor targets was measured in agonist mode. Assays were run at the NIH Chemical Genomics Center (Rockville, MD).
Cell-based HTS Assays: These assays measuring binding constants and enzyme inhibition values for nuclear receptors. The targets include AR, ER, FXR, LXR, PPARα, PPARδ, PPARγ, RXRα, RXRβ and PXR. Each of the nuclear receptor targets was measured in both agonist and antagonist mode, but the antagonist data is still undergoing analysis due to possible interference between cytotoxicity and assay activity, so antagonist mode data were not used in the present analysis. Assays were run at the NIH Chemical Genomics Center (Rockville, MD) as part of the Tox21 collaboration. […] The R^2 was required to be ≥0.5. Values where only the highest concentration exceeded 50% activity were excluded to eliminate weak or false positives. Detailed description of the methods, data and analysis methods for this dataset will be presented in a separate publication.

CYP3A4 = test: CLZD_CYP3A4: Change in expression of CYP3A4 (primary human hepatocytes); format: cell-based; conditions: 24 hr
How it was run: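 Primary human hepatocytes exposed to 5 concentrations (0.004-40 µM) for 6, 24 or 48 hr; transcript levels measured by multiplexed quantitative nuclease protection assay. Markers of nuclear receptor pathways: CYP1A1 (AhR), CYP2B6 and ABCB1 (CAR), CYP3A4 (PXR).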

| SMILES | ATG_LXRa_TRANS (LXRa (NR1H3); HepG2 reporter) | CLZD_HMGCS2_24 (HMGCS2) | CHR_Mouse_Liver_1_AnyLesion (Mouse Liver [1]; chronic study, mouse liver) | CHR_Mouse_Liver_2_PreneoplasticLesion (Mouse Liver [2]) | CHR_Mouse_Liver_3_NeoplasticLesion (Mouse Liver [3]) | CHR_Rat_Liver_1_AnyLesion (Rat Liver [4]; chronic study, rat liver) | CHR_Rat_Liver_2_PreneoplasticLesion (Rat Liver [5]; chronic study, rat liver) | CHR_Rat_Liver_3_NeoplasticLesion (Rat Liver [6]; chronic study, rat liver) | ATG_PXRE_CIS (PXR (NR1I2)) | ATG_LXRa_TRANS (LXRa (NR1H3); HepG2) | NCGC_LXR_Agonist (LXRa (NR1H2)) | CHR_Mouse_Liver_1_AnyLesion (Mouse Liver [1]; chronic mouse study, liver) | CHR_Rat_Liver_1_AnyLesion (Rat Liver [4]; chronic rat study, liver) | CHR_Rat_Liver_2_PreneoplasticLesion (Rat Liver [5]; chronic rat study, liver) | CHR_Rat_Liver_3_NeoplasticLesion (Rat Liver [6]; chronic rat study, liver) | CLZD_CYP3A4_24 (CYP3A4) |
| --- | --- | --- | --- | --- | --- | --- | --- | --- | --- | --- | --- | --- | --- | --- | --- | --- |
| CCOC(=O)C(C)Oc1ccc(Oc2cnc3cc(Cl)ccc3n2)cc1 (centres unmarked) [r279] | 4.824 | 5.409 | 6 | 6 | 6 | 6 | 0 | 0 | 4.523 | – | – | – | – | – | – | – |
| O=C(NC(=O)c1c(F)cccc1F)Nc1ccc(OC(F)(F)C(F)OC(F)(F)F)c(Cl)c1 (centres unmarked) [row 223] | – | – | – | – | – | – | – | – | – | 4.523 | 4.536 | 6 | 6 | 0 | 0 | – |
| COc1cc(OC)nc(Sc2cccc(Cl)c2C(=O)[O-])n1.[Na+] [r275] | – | 5.29 | 6 | 6 | 6 | 6 | 6 | 0 | – | – | – | – | – | – | – | 4.874 |
